For four compounds, IC50 results are on record in patent US11008293B2, “5-carboxamide-2-thiobarbituric acids and use thereof as medicaments” (FONDAZIONE ISTITUTO ITALIANO DI TECNOLOGIA, priority 2017, dated 2021).

Common to all, as to format: cell-based
For experiment [1], the system named is DU145. The experiment can be described thus: Antiproliferative activity on DU145 cancer cells. Particulars: Homo sapiens, DU-145.
Experiment [2] concerns HeLa. Briefly: Antiproliferative activity on HeLa cancer cells. Particulars: Homo sapiens.
In experiment [3] the test system is MCF7. Briefly: Antiproliferative activity on MCF7 cancer cells. Particulars: Homo sapiens.
Experiment [4] deals with A549. The experiment can be described thus: Antiproliferative activity on A549 cancer cells. Particulars: Homo sapiens.

SMILES strings stand for the structures.

By IC50 is commonly meant the concentration at which inhibition is half-maximal. Low values mean greater potency, high ones weaker potency. Regarding `COc1cc(NC(=O)c2c(O)n(-c3ccccc3)c(=S)n(-c3ccccc3)c2=O)cc(OC)c1O`, the IC50 in experiment [1] worked out at 26.7 ± 0.1 µM; in experiment [2], 18.1 ± 0.8 µM; in experiment [3], 53.5 ± 1.9 µM; in experiment [4] it was 17.5 ± 1.1 µM.

With `O=C(Nc1ccc(O)cc1)c1c(O)n(-c2ccccc2)c(=S)n(-c2ccccc2)c1=O`, the IC50 in experiment [1] came out at 42.5 ± 7.7 µM; in experiment [2], 42.9 ± 6.1 µM; in experiment [3], 66.1 ± 7.5 µM; in experiment [4], 37.1 ± 3.7 µM.

For the compound `COc1cccc(NC(=O)c2c(O)n(-c3ccccc3)c(=S)n(-c3ccccc3)c2=O)c1`, the IC50 in experiment [1] is 12.5 ± 1.5 µM; in experiment [2], 8.5 ± 0.5 µM; in experiment [3], 14 ± 0.9 µM; in experiment [4], 6.9 ± 0.2 µM.

`O=C(Nc1cccc(O)c1)c1c(O)n(-c2ccccc2)c(=S)n(-c2ccccc2)c1=O`: the IC50 in experiment [1] was 49.6 ± 2.7 µM; in experiment [2] it was 39.1 ± 0.7 µM; in experiment [3], 94.2 ± 3.1 µM; in experiment [4], 59.4 ± 6.1 µM.
